Tests used:
Assay in all cases: relative viability (nuclei count vs DMSO), 5 days (fraction); higher = more cells survive
[1] = compound: C[C@]1(O)C[C@@H](c2nc(-c3ccc4ccc(-c5ccccc5)nc4c3)c3c(N)nccn32)C1 [Linsitinib] + O=C(CCCCCCC(=O)Nc1ccccc1)NO [Vorinostat] (partner 1 µM)
How it was run: (§1)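 Lung cancer cell lines were seeded in 1536-well plates and dosed by pin tool the next day, with either a single drug or a fixed anchor-drug dose combined with five library-drug doses (not always all listed) spaced in √10 steps. Five days later, one step fixed the cells and stained their nuclei (final 0.05% Triton X-100, 1% formaldehyde, 1 ug/ml Hoechst), and nuclei were counted on 4× images. Relative viability is the nuclei count in treated wells divided by the count in vehicle wells, and each value is the median of duplicate plates.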

[2] = compound: C[C@]1(O)C[C@@H](c2nc(-c3ccc4ccc(-c5ccccc5)nc4c3)c3c(N)nccn32)C1 [Linsitinib] + N=C(N)NC(=N)NCCc1ccccc1 [Phenformin] (partner 250 µM)
How it was run: as §1

[3] = compound: Cc1ccc(C(=O)N(CCCN)[C@@H](c2nc3cc(Cl)ccc3c(=O)n2Cc2ccccc2)C(C)C)cc1 [Ispinesib] + CC(=O)c1c(C)c2cnc(Nc3ccc(N4CCNCC4)cn3)nc2n(C2CCCC2)c1=O [Palbociclib] (partner 0.5 µM)
How it was run: as §1

[4] = compound: Cc1ccc(C(=O)N(CCCN)[C@@H](c2nc3cc(Cl)ccc3c(=O)n2Cc2ccccc2)C(C)C)cc1 [Ispinesib] + Cc1nc(NC(=O)N2CCC[C@H]2C(N)=O)sc1-c1ccnc(C(C)(C)C(F)(F)F)c1 [Alpelisib] (partner 2 µM)
How it was run: as §1

Row | Cell Line | relative viability ([1]; first compound 0.01 µM) | relative viability ([1]; first compound 0.03162 µM) | relative viability ([1]; first compound 0.1 µM) | relative viability ([1]; first compound 0.3162 µM) | relative viability ([1]; first compound 1 µM) | relative viability ([2]; first compound 0.01 µM) | relative viability ([2]; first compound 0.03162 µM) | relative viability ([2]; first compound 0.1 µM) | relative viability ([2]; first compound 0.3162 µM) | relative viability ([2]; first compound 1 µM) | relative viability ([3]; first compound 0.001 µM) | relative viability ([3]; first compound 0.003162 µM) | relative viability ([3]; first compound 0.01 µM) | relative viability ([3]; first compound 0.03162 µM) | relative viability ([3]; first compound 0.1 µM) | relative viability ([4]; first compound 0.001 µM) | relative viability ([4]; first compound 0.003162 µM) | relative viability ([4]; first compound 0.01 µM) | relative viability ([4]; first compound 0.03162 µM) | relative viability ([4]; first compound 0.1 µM)
1 | NCI-H1651 | 0.267 | 0.535 | 0.5 | 0.543 | 0.484 | 0.324 | 0.344 | 0.304 | 0.272 | 0.311 | 0.526 | 0.57 | 0.61 | 0.518 | 0.576 | 0.957 | 0.99 | 1.26 | 1.05 | 0.206
2 | EBC-1 |  |  |  |  |  |  |  |  |  |  |  |  |  |  |  | 0.77 | 0.861 | 0.931 | 0.244 | 0.274
3 | COR-L 105 | 0.749 | 0.872 | 0.712 | 0.389 | 0.609 | 0.554 | 0.451 | 0.49 | 0.478 | 0.406 | 0.439 | 0.39 | 0.369 | 0.362 | 0.305 | 1.15 | 0.952 | 0.89 | 0.562 | 0.35
4 | RERF-LC-KJ | 0.552 | 0.608 | 0.649 | 0.293 | 0.455 | 0.408 | 0.368 | 0.463 | 0.425 | 0.409 | 1.11 | 1.03 | 0.935 | 0.68 | 0.583 | 0.836 | 1.32 | 0.77 | 0.794 | 0.631
5 | NCI-H1793 | 0.816 | 0.749 | 0.705 | 0.536 | 0.433 | 0.362 | 0.373 | 0.369 | 0.271 | 0.282 | 0.358 | 0.314 | 0.31 | 0.312 | 0.219 | 0.677 | 0.713 | 1.17 | 0.783 | 0.328
6 | CAL-12T | 0.69 | 0.744 | 0.727 | 0.524 | 0.569 | 0.573 | 0.573 | 0.619 | 0.528 | 0.558 | 0.452 | 0.409 | 0.29 | 0.177 | 0.195 | 1.05 | 1.29 | 1.38 | 0.624 | 0.142
7 | NCI-H1993 | 0.936 | 0.737 | 0.781 | 0.286 | 0.644 | 0.523 | 0.465 | 0.572 | 0.526 | 0.526 | 0.566 | 0.404 | 0.66 | 0.673 | 0.487 | 0.697 | 0.637 | 0.709 | 0.663 | 0.596
8 | LXF-289 | 0.735 | 0.69 | 0.755 | 0.473 | 0.729 | 0.5 | 0.448 | 0.523 |  | 0.471 | 0.629 | 0.666 | 0.674 | 0.619 | 0.589 | 1.06 | 1.05 | 1.16 | 0.993 | 0.733
9 | NCI-H1792 |  |  |  |  |  | 0.453 | 0.419 | 0.29 | 0.166 | 0.073 | 0.725 | 0.762 | 0.859 | 0.686 | 0.301 | 0.838 | 0.68 | 0.692 | 0.393 | 0.44
10 | LU99A | 0.492 | 0.466 | 0.524 |  | 0.291 | 0.919 | 0.848 | 0.781 | 0.475 | 0.555 | 0.398 | 0.44 | 0.481 | 0.315 | 0.285 | 0.527 | 0.572 | 0.66 | 0.318 | 0.208
11 | SW 1573 | 0.934 | 0.575 | 0.786 | 0.26 | 0.518 | 0.359 | 0.335 | 0.311 | 0.244 | 0.203 | 0.385 | 0.404 | 0.32 | 0.18 | 0.218 | 1 | 0.816 | 1.07 | 0.893 | 0.255
12 | COR-L23 | 0.431 | 0.267 | 0.402 | 0.357 | 0.302 | 0.434 | 0.414 | 0.467 | 0.347 | 0.469 | 0.261 | 0.267 | 0.217 | 0.148 | 0.171 | 0.827 | 0.948 | 1.08 | 0.144 | 0.16
13 | A549 |  |  |  |  |  | 0.2 | 0.264 | 0.173 | 0.0926 | 0.151 |  |  |  |  |  | 0.655 | 0.761 | 1.08 | 0.0901 | 0.0827
14 | ChaGo-K-1 | 0.798 | 0.774 | 0.78 |  | 0.694 | 0.527 | 0.515 | 0.499 | 0.332 | 0.457 | 0.8 | 1.01 | 1.11 | 0.985 | 0.845 |  |  |  |  | 
15 | NCI-H1648 | 0.605 | 0.412 | 0.551 | 0.211 | 0.57 |  |  |  |  |  | 0.285 | 0.297 | 0.248 | 0.291 | 0.256 |  |  |  |  | 
16 | SW 900 | 0.627 | 0.436 | 0.458 | 0.285 | 0.272 | 0.701 | 0.753 | 0.553 | 0.433 | 0.37 | 0.566 | 0.638 | 0.609 | 0.624 | 0.321 |  |  |  |  | 
17 | NCI-H1563 |  |  |  |  |  | 0.68 | 0.647 | 0.658 | 0.834 | 0.621 |  |  |  |  |  | 0.972 | 0.949 | 0.944 | 0.838 | 0.705
18 | NCI-H2342 | 0.689 | 0.707 | 0.764 | 0.727 | 0.756 | 0.46 | 0.584 | 0.527 | 0.511 | 0.488 | 0.571 | 0.539 | 0.556 | 0.541 | 0.522 |  |  |  |  | 
19 | NCI-H1623 |  |  |  |  |  | 0.628 | 0.618 | 0.581 |  | 0.519 |  |  |  |  |  |  |  |  |  | 
20 | NCI-H596 | 0.583 | 0.584 | 0.597 | 0.49 | 0.593 | 0.721 | 0.638 | 0.678 | 0.774 | 0.833 |  |  |  |  |  | 0.563 | 0.427 | 0.583 | 0.458 | 0.394
21 | NCI-H1299 |  |  |  |  |  |  |  |  |  |  |  |  |  |  |  | 1.11 | 1.09 | 1.15 | 1.17 | 0.449
22 | Calu-6 |  |  |  |  |  |  |  |  |  |  |  |  |  |  |  | 1.04 | 0.901 | 0.551 | 0.134 | 0.145

— the supplement of paper PMC10307832
